Measured values reported in paper PMC10089784, “Inhibition of Gluconeogenesis by Boldine in the Perfused Liver: Therapeutical Implication for Glycemic Control” (International Journal of Hepatology, 2023).

Experiments:
Type in all cases: cell-based
[1] = target: T1, fructose 1,6-bisphosphatase (FBPase-1) (Rattus norvegicus, UniProt P19112); assay: phosphate release from fructose […],6-bisphosphate in rat liver cytosolic fraction; […] (incomplete) inhibition at […]
T1 construct: gene Fbp1; rat liver cytosolic fraction
T1 sequence (P19112 2-363): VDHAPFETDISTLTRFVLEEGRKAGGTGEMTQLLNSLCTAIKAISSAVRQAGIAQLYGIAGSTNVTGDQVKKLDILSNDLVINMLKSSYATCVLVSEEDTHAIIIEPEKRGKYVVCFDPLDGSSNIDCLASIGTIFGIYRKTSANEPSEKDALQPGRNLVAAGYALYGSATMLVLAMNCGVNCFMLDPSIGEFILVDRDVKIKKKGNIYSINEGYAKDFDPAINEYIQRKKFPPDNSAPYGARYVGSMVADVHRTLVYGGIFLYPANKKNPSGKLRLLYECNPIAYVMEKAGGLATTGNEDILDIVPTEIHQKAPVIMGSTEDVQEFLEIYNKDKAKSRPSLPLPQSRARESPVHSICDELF

[2] = target: T2, phosphoenolpyruvate carboxykinase (PEPCK) (Rattus norvegicus, UniProt P07379); assay: enzyme activity in rat liver cytosolic fraction, coupled to malate dehydrogenase (NADH oxidation, […] nm); […] inhibition at […]
T2 construct: gene Pck1; rat liver cytosolic fraction
T2 sequence (P07379 whole entry): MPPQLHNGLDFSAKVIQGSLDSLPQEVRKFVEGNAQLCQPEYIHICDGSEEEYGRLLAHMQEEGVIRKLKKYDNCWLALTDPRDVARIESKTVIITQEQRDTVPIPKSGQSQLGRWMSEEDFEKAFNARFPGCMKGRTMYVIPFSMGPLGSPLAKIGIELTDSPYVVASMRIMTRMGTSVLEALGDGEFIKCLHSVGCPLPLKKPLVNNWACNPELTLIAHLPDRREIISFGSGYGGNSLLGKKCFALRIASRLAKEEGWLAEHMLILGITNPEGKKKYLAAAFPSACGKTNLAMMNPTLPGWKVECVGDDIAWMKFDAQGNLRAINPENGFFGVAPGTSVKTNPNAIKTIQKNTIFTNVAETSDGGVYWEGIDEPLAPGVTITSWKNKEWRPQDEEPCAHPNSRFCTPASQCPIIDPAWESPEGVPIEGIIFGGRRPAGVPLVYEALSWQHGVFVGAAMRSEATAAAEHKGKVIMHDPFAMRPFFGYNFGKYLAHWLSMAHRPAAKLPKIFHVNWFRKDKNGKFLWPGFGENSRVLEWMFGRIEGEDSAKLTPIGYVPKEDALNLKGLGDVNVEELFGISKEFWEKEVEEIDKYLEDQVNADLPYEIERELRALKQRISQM

[3] = target: T3, glucose 6-phosphatase (G6Pase) (Rattus norvegicus, UniProt P43428); assay: phosphate release from glucose 6-phosphate in isolated rat liver microsomes; […] inhibition at […]
T3 construct: gene G6pc1; isolated rat liver microsomes
T3 sequence (P43428 1-357): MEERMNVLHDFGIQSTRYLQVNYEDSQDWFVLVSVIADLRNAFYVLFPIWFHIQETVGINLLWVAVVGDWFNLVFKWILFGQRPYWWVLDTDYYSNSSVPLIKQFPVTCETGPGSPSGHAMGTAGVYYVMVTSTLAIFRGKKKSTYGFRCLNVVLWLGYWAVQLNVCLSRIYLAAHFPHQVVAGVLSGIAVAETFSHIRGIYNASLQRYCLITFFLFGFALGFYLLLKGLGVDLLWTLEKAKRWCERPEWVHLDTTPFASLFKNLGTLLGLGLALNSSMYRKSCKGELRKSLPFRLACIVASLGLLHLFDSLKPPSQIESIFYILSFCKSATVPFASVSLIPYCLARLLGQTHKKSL

With `COc1cc2c(cc1O)C[C@H]1c3c(cc(O)c(OC)c3-2)CCN1C` [boldine, 1,10-dimethoxy-2,9-dihydroxy aporphine] the inhibition at 200 µM [1] was 42%, the inhibition at 200 µM [2] was 49% and the inhibition at 200 µM [3] was 35%.
